Results taken from PubChem BioAssay AID1259408 (Genetic Toxicology Data Bank (GENE-TOX), 2018).
Calls of active or inactive are those of the source. The rule behind the calls is not given here.

Tested on: GENE-TOX genotoxicity assays, various organisms and cells
Assay: GENE-TOX mutagenicity studies
Settings: for call: Assay Type: In vivo carcinogenicity studies
From the text: GENE-TOX provides genetic toxicology (mutagenicity) test data from expert peer review of open scientific literature for more than 3,000 chemicals from the United States Environmental Protection Agency (EPA). GENE-TOX was established to select assay systems for evaluation, review data in the scientific literature, and recommend proper testing protocols and evaluation procedures for these systems.
GENE-TOX covers the years 1991 - 1998. It is no longer updated.
This is an archive assay for GENE-TOX mutagenicity studies.

[1] = Species/Cell Type: Bacillus subtilis (H17 vs M45), Assay Type: Rec-assay, spot test, DNA effects (bacterial DNA repair), Assay Code: REW+, Evaluation Type: Evaluation A (Pre-1980)
[2] = Species/Cell Type: Mammalian polychromatic erythrocytes, Assay Type: Micronucleus test, chromosome aberrations, Assay Code: MNTT, Evaluation Type: Evaluation A (Pre-1980)
[3] = Species/Cell Type: Nonhuman, Assay Code: CCG+, Evaluation Type: Evaluation A (Pre-1980)
[4] = Species/Cell Type: Nonhuman, Assay Type: Sister-chromatid exchange (SCE) in vitro, Assay Code: SC2T, Evaluation Type: Evaluation B (Post-1980)
[5] = Species/Cell Type: Saccharomyces cerevisiae, Assay Type: Mitotic recombination or gene conversion, Assay Code: YEC+, Evaluation Type: Evaluation A (Pre-1980)
[6] = Species/Cell Type: Saccharomyces cerevisiae, Assay Type: Mitotic recombination or gene conversion, Assay Code: YEH+, Evaluation Type: Evaluation A (Pre-1980)
[7] = Species/Cell Type: Saccharomyces cerevisiae, Assay Type: Reverse gene mutation, Assay Code: YER+, Evaluation Type: Evaluation A (Pre-1980)
[8] = Species/Cell Type: Salmonella typhimurium (one or more of the five standard strains: TA98, TA100, TA1535, TA1537, and TA1538), Assay Type: Histidine reverse gene mutation, Ames assay, Assay Code: SALT, Evaluation Type: Evaluation A (Pre-1980)
[9] = Species/Cell Type: Mammalian oocytes or early embryo, Assay Type: Chromosome aberrations in vivo, Assay Code: CYO+, Evaluation Type: Evaluation A (Pre-1980)
[10] = Species/Cell Type: Vicia faba, Assay Type: Chromosome aberrations, Assay Code: VIC+, Evaluation Type: Evaluation A (Pre-1980)
[11] = Species/Cell Type: Salmonella typhimurium (one or more of the five standard strains: TA98, TA100, TA1535, TA1537, and TA1538), Assay Type: Histidine reverse gene mutation, Ames assay, Assay Code: SAL+, Evaluation Type: Evaluation A (Pre-1980)
[12] = Species/Cell Type: Human lymphocytes, Assay Type: Sister-chromatid exchange (SCE) in vitro, Assay Code: SCLT, Evaluation Type: Evaluation B (Post-1980)
[13] = Species/Cell Type: Drosophila melanogaster, Assay Type: Sex-linked recessive lethal gene mutation, Assay Code: SRLT, Evaluation Type: Evaluation A (Pre-1980)
[14] = Species/Cell Type: Saccharomyces cerevisiae, Assay Type: Forward gene mutation, Assay Code: YEF+, Evaluation Type: Evaluation A (Pre-1980)
[15] = Species/Cell Type: Salmonella typhimurium (one or more of the five standard strains: TA98, TA100, TA1535, TA1537, and TA1538), Assay Type: Histidine reverse gene mutation, Ames assay, Assay Code: SAL+*, Activation: With metabolic activation, Evaluation Type: Evaluation A (Pre-1980)

SMILES: [O-][n+]1ccccc1
- mutagenic call [1]: active; positive
- mutagenic call (Species/Cell Type: Escherichia coli polA (W3119 vs P3478), Assay Type: Rec-assay, DNA effects (bacterial DNA repair), Assay Code: RE1-, Evaluation Type: Evaluation A (Pre-1980)): inactive; negative

SMILES: ClC(Cl)Cl
- mutagenic call (Species/Cell Type: Chinese hamster lung (V79) cells, Assay Type: Forward gene mutation at the HPRT or ouabain locus, Assay Code: V79-, Evaluation Type: Evaluation A (Pre-1980)): inactive; negative
- mutagenic call (Species/Cell Type: Human lymphocytes, Assay Type: Sister-chromatid exchange (SCE) in vitro, Assay Code: SCL+D, Dose Response: With dose response, Evaluation Type: Evaluation B (Post-1980)): active; positive
- mutagenic call (Species/Cell Type: Human, Assay Type: Sister-chromatid exchange (SCE) in vitro, Assay Code: SC1+D, Dose Response: With dose response, Evaluation Type: Evaluation B (Post-1980)): active; positive
- mutagenic call [2]: no conclusion
- mutagenic call (Species/Cell Type: Mouse, Sex: Male, Assay Type: Sperm morphology, Assay Code: SPIT, Evaluation Type: Evaluation A (Pre-1980)): no conclusion
- call [3]: active; positive
- mutagenic call [4]: no conclusion
- mutagenic call (Species/Cell Type: Nonhuman, Assay Type: Sister-chromatid exchange (SCE) in vivo, Assay Code: SC3+D, Dose Response: With dose response, Evaluation Type: Evaluation B (Post-1980)): active; positive
- mutagenic call [5]: active; positive
- mutagenic call [6]: active; positive
- mutagenic call [7]: active; positive
- mutagenic call (Species/Cell Type: Syrian hamster embryo (SA7/SHE) cells, Assay Type: Cell transformation, viral enhanced, Assay Code: CT7-, Evaluation Type: Evaluation A (Pre-1980)): inactive; negative

SMILES: N#Cc1c(Cl)cccc1Cl
- mutagenic call (Species/Cell Type: Saccharomyces cerevisiae, Assay Type: Mitotic recombination or gene conversion, Assay Code: YEC-, Evaluation Type: Evaluation A (Pre-1980)): inactive; negative

SMILES: CC1C(c2ccccc2)OCCN1N=O (stereo unspecified)
- mutagenic call (Species/Cell Type: Salmonella typhimurium, Assay Type: Forward and reverse gene mutation, host-mediated assay, Assay Code: HMA-, Evaluation Type: Evaluation A (Pre-1980)): inactive; negative

SMILES: FC(F)C(F)(F)C(F)(F)OC(F)(F)F
- mutagenic call [8]: no conclusion

SMILES: CC(=O)OC[C@H]1O[C@@H](Oc2ccc3c(c2O)C(=O)c2ccccc2C3=O)[C@H](OC(C)=O)[C@@H](OC(C)=O)[C@@H]1OC(C)=O
- mutagenic call [8]: no conclusion

SMILES: COC1=C(N)C(=O)c2nc(-c3nc(C(=O)O)c(C)c(-c4ccc(OC)c(OC)c4O)c3N)ccc2C1=O
- mutagenic call (Species/Cell Type: Fischer rat embryo (RLV/1706) cells, Assay Type: Cell transformation, viral enhanced, Assay Code: CTR-, Evaluation Type: Evaluation A (Pre-1980)): inactive; negative
- mutagenic call (Species/Cell Type: Human cell culture, Assay Type: Chromosome aberrations in vitro, Assay Code: CYZ+, Evaluation Type: Evaluation A (Pre-1980)): active; positive
- mutagenic call (Species/Cell Type: Human diploid fibroblasts, Assay Type: Unscheduled DNA synthesis (UDS) in vitro, DNA effects, Assay Code: UDH+, Evaluation Type: Evaluation A (Pre-1980)): active; positive
- mutagenic call [9]: active; positive
- mutagenic call (Species/Cell Type: Nonhuman, Assay Type: Sister-chromatid exchange (SCE) in vivo, Assay Code: SC3+, Evaluation Type: Evaluation A (Pre-1980)): active; positive
- mutagenic call [10]: active; positive

SMILES: CC(=O)Nc1nnc(-c2ccc([N+](=O)[O-])o2)s1
- mutagenic call [11]: active; positive

SMILES: O.O.O.O.O.O.[Cl-].[Cl-].[Ni+2]
- mutagenic call (Species/Cell Type: Nonhuman, Assay Type: Sister-chromatid exchange (SCE) in vitro, Assay Code: SC2+, Evaluation Type: Evaluation B (Post-1980)): active; positive

SMILES: CN1CCN(CCCN2c3ccccc3Sc3ccccc32)CC1
- mutagenic call [12]: no conclusion
- mutagenic call (Species/Cell Type: Human, Assay Type: Sister-chromatid exchange (SCE) in vitro, Assay Code: SC1T, Evaluation Type: Evaluation B (Post-1980)): no conclusion

SMILES: [Cl][Mn][Cl]
- mutagenic call [1]: active; positive
- mutagenic call (Species/Cell Type: Fischer rat embryo (RLV/1706) cells, Assay Type: Cell transformation, viral enhanced, Assay Code: CTR+, Evaluation Type: Evaluation A (Pre-1980)): active; positive
- mutagenic call [4]: no conclusion
- mutagenic call (Species/Cell Type: Syrian hamster embryo (SA7/SHE) cells, Assay Type: Cell transformation, viral enhanced, Assay Code: CT7+, Evaluation Type: Evaluation A (Pre-1980)): active; positive

SMILES: CCCN(N=O)C(N)=O
- mutagenic call (Species/Cell Type: Human diploid fibroblasts, Assay Type: Unscheduled DNA synthesis (UDS) in vitro, DNA effects, Assay Code: UDH-, Evaluation Type: Evaluation A (Pre-1980)): inactive; negative
- call (Species/Cell Type: Nonhuman, Assay Code: CCG+L, Evaluation Type: Evaluation A (Pre-1980)): active; positive
- mutagenic call [5]: active; positive

SMILES: CC(=O)C(NC(=O)C(C)C(O)C(C)NC(=O)C(NC(=O)c1nc(C(CC(N)=O)NCC(N)C(N)=O)nc(N)c1C)C(O[C@@H]1O[C@@H](CO)[C@@H](O)[C@H](O)[C@]1(C)O[C@@H]1OC(CO)[C@H](O)[C@](O)(C(N)=O)[C@H]1O)c1cnc[nH]1)C(=O)NCCC1=NC(c2nc(C(N)=O)cs2)CS1 (stereo partly specified)
- mutagenic call [9]: active; positive
- mutagenic call (Species/Cell Type: Vicia faba, Assay Type: Chromosome aberrations, Assay Code: VIC+D, Dose Response: With dose response, Evaluation Type: Evaluation A (Pre-1980)): active; positive

SMILES: NN
- mutagenic call [13]: no conclusion
- call [3]: active; positive
- mutagenic call (Species/Cell Type: Nonhuman, Assay Type: Sister-chromatid exchange (SCE) in vitro, Assay Code: SC2+D, Dose Response: With dose response, Evaluation Type: Evaluation B (Post-1980)): active; positive
- mutagenic call [14]: active; positive
- mutagenic call [10]: active; positive

SMILES: CCCN(CCC)S(=O)(=O)c1ccc(C(=O)O)cc1
- mutagenic call (Species/Cell Type: Saccharomyces cerevisiae, Assay Type: Mitotic recombination or gene conversion, Assay Code: YEC-*, Activation: With metabolic activation, Evaluation Type: Evaluation A (Pre-1980)): inactive; negative

SMILES: [Cl][Ti]([Cl])[Cl]
- mutagenic call (Species/Cell Type: Nonhuman, Assay Type: Sister-chromatid exchange (SCE) in vitro, Assay Code: SC2-, Evaluation Type: Evaluation B (Post-1980)): inactive; negative

SMILES: O=NN1CCNCC1
- mutagenic call (Species/Cell Type: Salmonella typhimurium, Assay Type: Forward and reverse gene mutation, host-mediated assay, Assay Code: HMA+, Evaluation Type: Evaluation A (Pre-1980)): active; positive

SMILES: NC(=O)N1c2ccccc2C2OC2c2ccccc21 (stereo unspecified)
- mutagenic call [12]: no conclusion
- mutagenic call [8]: no conclusion

SMILES: CC(=O)OC[C@H]1O[C@@H](Oc2cccc3c2C(=O)c2c(O)cccc2C3=O)[C@H](OC(C)=O)[C@@H](OC(C)=O)[C@@H]1OC(C)=O
- mutagenic call [15]: active; positive

SMILES: CON
- mutagenic call [13]: no conclusion
- mutagenic call (Species/Cell Type: Drosophila melanogaster, Sex: Male, Assay Type: Heritable translocation test, chromosome aberrations, Assay Code: DHTT, Evaluation Type: Evaluation A (Pre-1980)): no conclusion
- mutagenic call (Species/Cell Type: Neurospora crassa, Assay Type: Reverse gene mutation, Assay Code: NER+, Evaluation Type: Evaluation A (Pre-1980)): active; positive
- mutagenic call [6]: active; positive

SMILES: CC(=O)Oc1ccccc1C(=O)O
- mutagenic call [2]: no conclusion
- mutagenic call (Species/Cell Type: Mouse, Sex: Male, Assay Type: Sperm morphology, Assay Code: SPI-, Evaluation Type: Evaluation A (Pre-1980)): inactive; negative

SMILES: COCCc1ccc(OCC(O)CNC(C)C)cc1 (stereo unspecified)
- mutagenic call (Species/Cell Type: Mammalian polychromatic erythrocytes, Assay Type: Micronucleus test, chromosome aberrations, Assay Code: MNTT, Evaluation Type: Evaluation B (Post-1980)): no conclusion

SMILES: O=NN1CCNC1=O
- mutagenic call (Species/Cell Type: Arabidopsis species, Assay Type: Gene mutation, Assay Code: ARM+D, Dose Response: With dose response, Evaluation Type: Evaluation A (Pre-1980)): active; positive
- mutagenic call [14]: active; positive
- mutagenic call [5]: active; positive
- mutagenic call [6]: active; positive
- mutagenic call [7]: active; positive
- mutagenic call [11]: active; positive

SMILES: CCc1cc2c(c3ccc4ccccc4c13)CCC2=O
- mutagenic call [15]: active; positive

SMILES: COc1ccc2nc3cc(Cl)ccc3c(NCCCNCCO)c2c1
- mutagenic call (Species/Cell Type: Chinese hamster ovary (CHO) cells, Assay Type: Forward gene mutation at the HPRT locus, Assay Code: CHO-, Evaluation Type: Evaluation A (Pre-1980)): inactive; negative
- mutagenic call (Species/Cell Type: Chinese hamster ovary (CHO) cells, Assay Type: Forward gene mutation at the HPRT locus, Assay Code: CHOT, Evaluation Type: Evaluation B (Post-1980)): no conclusion
- mutagenic call [8]: no conclusion

SMILES: O=CCC=O
- mutagenic call [8]: no conclusion
